Results: ChEMBL document CHEMBL5365526 (J Med Chem, 2023)
Calls of active or inactive are those of the source. The rule behind the calls is not given here.

Tests used:
[1] = target: von Hippel-Lindau disease tumor suppressor/Mitogen-activated protein kinase 7 (Homo sapiens, UniProt Q13164+P40337); test: PROTAC activity at VHL/ERK5 in human A-375 cells assessed as induction of ERK5 degradation at 100 nM incubated for 24 hrs by western blot analysis; assay type: cell-based
[2] = target: Mitogen-activated protein kinase 7 (Homo sapiens, UniProt Q13164); test: Inhibition of ERK5 (unknown origin) by ADP-Glo kinase assay
Sequence of Mitogen-activated protein kinase 7 (Q13164 whole entry): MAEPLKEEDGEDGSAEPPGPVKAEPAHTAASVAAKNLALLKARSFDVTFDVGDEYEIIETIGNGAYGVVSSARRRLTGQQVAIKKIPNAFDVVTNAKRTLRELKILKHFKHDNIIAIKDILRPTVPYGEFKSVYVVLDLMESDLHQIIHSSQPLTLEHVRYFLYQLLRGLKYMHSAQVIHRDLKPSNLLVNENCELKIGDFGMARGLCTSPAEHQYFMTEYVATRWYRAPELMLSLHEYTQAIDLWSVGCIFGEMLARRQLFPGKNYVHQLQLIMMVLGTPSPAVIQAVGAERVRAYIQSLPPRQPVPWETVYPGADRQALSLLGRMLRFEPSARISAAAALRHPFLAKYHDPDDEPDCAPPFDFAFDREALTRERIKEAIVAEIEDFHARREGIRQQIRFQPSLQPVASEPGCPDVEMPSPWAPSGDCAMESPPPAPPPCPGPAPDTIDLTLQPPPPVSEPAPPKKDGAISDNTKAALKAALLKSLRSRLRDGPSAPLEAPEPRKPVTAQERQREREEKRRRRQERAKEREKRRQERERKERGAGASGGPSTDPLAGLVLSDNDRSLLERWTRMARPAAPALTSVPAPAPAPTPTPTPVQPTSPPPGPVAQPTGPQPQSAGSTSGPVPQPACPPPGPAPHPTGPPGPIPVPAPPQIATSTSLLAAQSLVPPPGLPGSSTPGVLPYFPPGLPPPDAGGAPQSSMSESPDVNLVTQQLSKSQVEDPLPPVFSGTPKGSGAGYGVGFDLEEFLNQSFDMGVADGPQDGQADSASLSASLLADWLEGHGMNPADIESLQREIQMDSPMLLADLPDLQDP

[3] = Inhibition of M2 macrophage development in PMA-differentiated human THP-1 cells assessed as CD206 surface expression at 5 uM incubated for 48 hrs by flow cytometry (reference value: 53.4%); assay type: functional; design: scale not given: the % may be the effect or the level left
[4] = system: A-375; test: Inhibition of cell colony formation in human A-375 cells at 5 uM cultured in 8% FBS and measured after 7 days in presence of LPS by crystal violet staining based analysis; assay type: functional; conditions: time 7.0 day
[5] = system: HCT-116; test: Inhibition of cell colony formation in human HCT-116 cells at 5 uM cultured in 8% FBS and measured after 7 days in presence of LPS by crystal violet staining based analysis; assay type: functional; conditions: time 7.0 day

Sequence of von Hippel-Lindau disease tumor suppressor/Mitogen-activated protein kinase 7 (P40337 whole entry partner): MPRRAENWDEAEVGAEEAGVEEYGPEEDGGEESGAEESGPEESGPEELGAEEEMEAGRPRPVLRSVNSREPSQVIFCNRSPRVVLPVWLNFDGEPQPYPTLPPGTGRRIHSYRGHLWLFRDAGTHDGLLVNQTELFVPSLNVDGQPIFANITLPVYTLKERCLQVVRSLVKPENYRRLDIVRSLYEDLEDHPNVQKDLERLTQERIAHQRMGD
Sequence of von Hippel-Lindau disease tumor suppressor/Mitogen-activated protein kinase 7 (Q13164 2-816 limits assumed): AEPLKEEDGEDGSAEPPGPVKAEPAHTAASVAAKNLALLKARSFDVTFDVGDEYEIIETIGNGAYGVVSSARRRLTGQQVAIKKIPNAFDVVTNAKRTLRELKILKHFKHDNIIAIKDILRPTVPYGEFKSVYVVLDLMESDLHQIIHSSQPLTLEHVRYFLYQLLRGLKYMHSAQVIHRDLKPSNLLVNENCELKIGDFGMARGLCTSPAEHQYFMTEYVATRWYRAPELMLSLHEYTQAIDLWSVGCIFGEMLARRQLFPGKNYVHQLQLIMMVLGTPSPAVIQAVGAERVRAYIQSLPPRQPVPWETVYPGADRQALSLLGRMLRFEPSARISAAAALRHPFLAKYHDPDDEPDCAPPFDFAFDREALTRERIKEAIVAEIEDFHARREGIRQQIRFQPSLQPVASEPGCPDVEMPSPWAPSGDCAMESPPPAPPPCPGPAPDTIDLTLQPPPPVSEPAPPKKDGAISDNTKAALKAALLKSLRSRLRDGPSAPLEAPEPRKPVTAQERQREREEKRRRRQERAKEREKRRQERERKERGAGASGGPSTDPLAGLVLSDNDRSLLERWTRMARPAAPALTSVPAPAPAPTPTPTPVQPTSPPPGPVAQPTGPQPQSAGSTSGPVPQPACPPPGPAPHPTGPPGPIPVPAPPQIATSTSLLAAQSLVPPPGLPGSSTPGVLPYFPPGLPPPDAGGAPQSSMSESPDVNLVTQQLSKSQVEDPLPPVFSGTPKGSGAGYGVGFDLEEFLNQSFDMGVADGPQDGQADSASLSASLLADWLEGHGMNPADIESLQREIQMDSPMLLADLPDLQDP

Row | Compound | Activity [1] | other results
1 | COc1cc(N2CCN(CCOCC#Cc3cccc4c3CN(C3CCC(=O)NC3=O)C4=O)CC2)ccc1Nc1ncc2c(n1)N(C)c1ccccc1C(=O)N2C (centres undefined) | Active | 
2 | COc1cc(N2CCN(CCCCCCCCCCC(=O)N[C@H](C(=O)N3C[C@H](O)C[C@H]3C(=O)N[C@@H](C)c3ccc(-c4scnc4C)cc3)C(C)(C)C)CC2)ccc1Nc1ncc2c(n1)N(C)c1ccccc1C(=O)N2C | Active | 
3 | COc1cc(N2CCN(CCCCCCCCCC(=O)N[C@H](C(=O)N3C[C@H](O)C[C@H]3C(=O)N[C@@H](C)c3ccc(-c4scnc4C)cc3)C(C)(C)C)CC2)ccc1Nc1ncc2c(n1)N(C)c1ccccc1C(=O)N2C | Active | 
4 | COc1cc(N2CCN(CCCCCCCCC(=O)N[C@H](C(=O)N3C[C@H](O)C[C@H]3C(=O)N[C@@H](C)c3ccc(-c4scnc4C)cc3)C(C)(C)C)CC2)ccc1Nc1ncc2c(n1)N(C)c1ccccc1C(=O)N2C | Active | 
5 | COc1cc(N2CCN(CCCCC(=O)N[C@H](C(=O)N3C[C@H](O)C[C@H]3C(=O)N[C@@H](C)c3ccc(-c4scnc4C)cc3)C(C)(C)C)CC2)ccc1Nc1ncc2c(n1)N(C)c1ccccc1C(=O)N2C | Active | 
6 | COc1cc(N2CCN(CCOCCNc3cccc4c3C(=O)N(C3CCC(=O)NC3=O)C4=O)CC2)ccc1Nc1ncc2c(n1)N(C)c1ccccc1C(=O)N2C (centres undefined) | Active | 
7 | CCOC(=O)CCCCCCN1CCN(c2ccc(Nc3ncc4c(n3)N(C)c3ccccc3C(=O)N4C)c(OC)c2)CC1 |  | IC50 [2]: 27.1 nM
8 | COc1cc(NC(=O)CNc2cccc3c2C(=O)N(C2CCC(=O)NC2=O)C3=O)ccc1Nc1ncc2c(n1)N(C)c1ccccc1C(=O)N2C (centres undefined) | inactive | 
9 | COc1cc(NC(=O)CCCCCCCCCCNc2cccc3c2C(=O)N(C2CCC(=O)NC2=O)C3=O)ccc1Nc1ncc2c(n1)N(C)c1ccccc1C(=O)N2C (centres undefined) | inactive | 
10 | COc1cc(N2CCN(CCOCCOCCCN[C@H](C(=O)N3C[C@H](O)C[C@H]3C(=O)N[C@@H](C)c3ccc(-c4scnc4C)cc3)C(C)(C)C)CC2)ccc1Nc1ncc2c(n1)N(C)c1ccccc1C(=O)N2C | Active | 
11 | COc1cc(NC(=O)NCCOCCNc2cccc3c2C(=O)N(C2CCC(=O)NC2=O)C3=O)ccc1Nc1ncc2c(n1)N(C)c1ccccc1C(=O)N2C (centres undefined) | inactive | 
12 | COc1cc(C(=O)N2CCN(CCCCCC(=O)N[C@H](C(=O)N3C[C@H](O)C[C@H]3C(=O)N[C@@H](C)c3ccc(-c4scnc4C)cc3)C(C)(C)C)CC2)ccc1Nc1ncc2c(n1)N(C)c1ccccc1C(=O)N2C | Active | 
13 | COc1cc(N2CCNCC2)ccc1Nc1ncc2c(n1)N(C)c1ccccc1C(=O)N2C |  | IC50 [2]: 10.1 nM
14 | CCOc1cc(N2CCC(O)CC2)ccc1Nc1ncc2c(n1)N(C)c1ccccc1C(=O)N2C |  | Activity [3]: 44.5%; inhibition [4]: Active; inhibition [5]: Active
15 | COc1cc(NC(=O)NCCCNc2cccc3c2C(=O)N(C2CCC(=O)NC2=O)C3=O)ccc1Nc1ncc2c(n1)N(C)c1ccccc1C(=O)N2C (centres undefined) | inactive | 
16 | COc1cc(N2CCC(OCCCCCC(=O)N[C@H](C(=O)N3C[C@H](O)C[C@H]3C(=O)N[C@@H](C)c3ccc(-c4scnc4C)cc3)C(C)(C)C)CC2)ccc1Nc1ncc2c(n1)N(C)c1ccccc1C(=O)N2C | Active | 
17 | COc1cc(NC(=O)NCCOCCOCCNc2cccc3c2C(=O)N(C2CCC(=O)NC2=O)C3=O)ccc1Nc1ncc2c(n1)N(C)c1ccccc1C(=O)N2C (centres undefined) | inactive | 
18 | COc1cc(N2CCN(CCCCCC(=O)N[C@H](C(=O)N3C[C@H](O)C[C@H]3C(=O)N[C@@H](C)c3ccc(-c4scnc4C)cc3)C(C)(C)C)CC2)ccc1Nc1ncc2c(n1)N(C)c1ccccc1C(=O)N2C | Active | 
19 | COc1cc(NC(=O)NCCCCCCNc2cccc3c2C(=O)N(C2CCC(=O)NC2=O)C3=O)ccc1Nc1ncc2c(n1)N(C)c1ccccc1C(=O)N2C (centres undefined) | inactive | 
20 | COc1cc(NC(=O)CCCCCn2cc(CCNc3cccc4c3C(=O)N(C3CCC(=O)NC3=O)C4=O)nn2)ccc1Nc1ncc2c(n1)N(C)c1ccccc1C(=O)N2C (centres undefined) | inactive | 
21 | COc1cc(N2CCN(CCCCCCCC(=O)N[C@H](C(=O)N3C[C@H](O)C[C@H]3C(=O)N[C@@H](C)c3ccc(-c4scnc4C)cc3)C(C)(C)C)CC2)ccc1Nc1ncc2c(n1)N(C)c1ccccc1C(=O)N2C | Active | IC50 [2]: 67.1 nM
22 | COc1cc(NC(=O)NCCOCCOCCOCCNc2cccc3c2C(=O)N(C2CCC(=O)NC2=O)C3=O)ccc1Nc1ncc2c(n1)N(C)c1ccccc1C(=O)N2C (centres undefined) | inactive | 
23 | COc1cc(N2CCN(C(=O)CCCCC#Cc3cccc4c3CN(C3CCC(=O)NC3=O)C4=O)CC2)ccc1Nc1ncc2c(n1)N(C)c1ccccc1C(=O)N2C (centres undefined) | inactive | 
24 | COc1cc(NC(=O)NCCCCNc2cccc3c2C(=O)N(C2CCC(=O)NC2=O)C3=O)ccc1Nc1ncc2c(n1)N(C)c1ccccc1C(=O)N2C (centres undefined) | inactive | 
25 | COc1cc(C(=O)N2CCN(C(=O)CCCCC#Cc3cccc4c3CN(C3CCC(=O)NC3=O)C4=O)CC2)ccc1Nc1ncc2c(n1)N(C)c1ccccc1C(=O)N2C (centres undefined) | inactive | 
26 | COc1cc(NC(=O)NCCCCCNc2cccc3c2C(=O)N(C2CCC(=O)NC2=O)C3=O)ccc1Nc1ncc2c(n1)N(C)c1ccccc1C(=O)N2C (centres undefined) | inactive | 
